Measurements as given in publication PMC5218480 (PLoS ONE, 2017).

Tested on: MV-4-11 cells
Assay: Gene expression microarray analysis (Affymetrix PrimeView) and GSEA
Type: cell-based, human
Design: RFU PODN (11730768_x_at) / Fold change /veh PODN (11730768_x_at) / RFU LINC00158 (11744669_a_at) / Fold change /veh LINC00158 (11744669_a_at) / RFU DUSP10 (11751237_a_at) / Fold change /veh DUSP10 (11751237_a_at) / RFU ID3 (11757404_x_at) / Fold change /veh ID3 (11757404_x_at) / RFU PLEKHG5 (11737974_s_at) / Fold change /veh PLEKHG5 (11737974_s_at) / RFU LRRC4B (11730491_at) / Fold change /veh LRRC4B (11730491_at) / RFU GIMAP4 (11747438_a_at) / Fold change /veh GIMAP4 (11747438_a_at) / RFU KRT8 (11758183_x_at) / Fold change /veh KRT8 (11758183_x_at) / RFU CNN1 (11734310_a_at) / Fold change /veh CNN1 (11734310_a_at) / RFU VPS37D (11726825_at) / Fold change /veh VPS37D (11726825_at) / RFU C10orf10 (11716522_x_at) / Fold change /veh C10orf10 (11716522_x_at) / RFU KIR2DL2 /// KIR2DL4 /// KIR2DL5A /// KIR2DL5B /// KIR2DS1 /// KIR2DS2 /// KIR2DS3 /// KIR2DS4 /// KIR3DL3 /// KIR3DL3 /// KIR3DS1 (11738374_at) / Fold change /veh KIR2DL2 /// KIR2DL4 /// KIR2DL5A /// KIR2DL5B /// KIR2DS1 /// KIR2DS2 /// KIR2DS3 /// KIR2DS4 /// KIR3DL3 /// KIR3DL3 /// KIR3DS1 (11738374_at) / RFU C1QL1 (11718748_at) / Fold change /veh C1QL1 (11718748_at) / RFU TMPRSS4 (11747572_a_at) / Fold change /veh TMPRSS4 (11747572_a_at) / RFU HAMP (11756126_x_at) / Fold change /veh HAMP (11756126_x_at) / RFU RNFT2 (11725882_a_at) / Fold change /veh RNFT2 (11725882_a_at) / RFU NR4A2 (11747474_a_at) / Fold change /veh NR4A2 (11747474_a_at) / RFU ABCC12 (11746883_a_at) / Fold change /veh ABCC12 (11746883_a_at) / RFU TMEM136 (11760407_x_at) / Fold change /veh TMEM136 (11760407_x_at) / RFU CLDN22 /// WWC2 (11732394_at) / Fold change /veh CLDN22 /// WWC2 (11732394_at) / RFU HLA-DPB1 (11760878_x_at) / Fold change /veh HLA-DPB1 (11760878_x_at) / RFU SPINT1 (11716480_a_at) / Fold change /veh SPINT1 (11716480_a_at) / RFU GAP43 (11754022_s_at) / Fold change /veh GAP43 (11754022_s_at) / RFU A4GNT (11735810_at) / Fold change /veh A4GNT (11735810_at) / RFU PRB3 (11715151_x_at) / Fold change /veh PRB3 (11715151_x_at) / RFU TUBB4B (11761932_at) / Fold change /veh TUBB4B (11761932_at) / RFU CAPN14 (11732068_a_at) / Fold change /veh CAPN14 (11732068_a_at) / RFU TMCC2 (11721928_a_at) / Fold change /veh TMCC2 (11721928_a_at) / RFU IRGQ (11745062_a_at) / Fold change /veh IRGQ (11745062_a_at) / RFU FAM174B (11720279_a_at) / Fold change /veh FAM174B (11720279_a_at) / RFU TMPRSS4 (11748680_a_at) / Fold change /veh TMPRSS4 (11748680_a_at) / RFU FAM212B (11763350_a_at) / Fold change /veh FAM212B (11763350_a_at) / RFU PLEKHG5 (11743358_a_at) / Fold change /veh PLEKHG5 (11743358_a_at) / RFU ZSCAN30 (11745921_a_at) / Fold change /veh ZSCAN30 (11745921_a_at) / RFU CMKLR1 (11741424_a_at) / Fold change /veh CMKLR1 (11741424_a_at) / RFU LOC101060620 /// MAPK8IP1 (11723275_at) / Fold change /veh LOC101060620 /// MAPK8IP1 (11723275_at) / RFU SPTSSB (11747773_x_at) / Fold change /veh SPTSSB (11747773_x_at) / RFU PRSS12 (11739890_at) / Fold change /veh PRSS12 (11739890_at) / RFU BIN1 (11741810_x_at) / Fold change /veh BIN1 (11741810_x_at) / RFU WNT11 (11732464_a_at) / Fold change /veh WNT11 (11732464_a_at) / RFU C10orf10 (11716521_a_at) / Fold change /veh C10orf10 (11716521_a_at) / RFU C5orf56 (11738089_at) / Fold change /veh C5orf56 (11738089_at) / RFU CYB561 (11721691_x_at) / Fold change /veh CYB561 (11721691_x_at) / RFU ANKRD19P (11752326_a_at) / Fold change /veh ANKRD19P (11752326_a_at) / RFU OR2T12 /// OR2T33 /// OR2T8 (11738714_s_at) / Fold change /veh OR2T12 /// OR2T33 /// OR2T8 (11738714_s_at) / RFU VCAN (11748164_a_at) / Fold change /veh VCAN (11748164_a_at) / RFU JSRP1 (11732532_at) / Fold change /veh JSRP1 (11732532_at) / RFU KRTAP10-11 (11738290_x_at) / Fold change /veh KRTAP10-11 (11738290_x_at) / RFU MYO3A (11730013_a_at) / Fold change /veh MYO3A (11730013_a_at) / RFU EBF3 (11725865_a_at) / Fold change /veh EBF3 (11725865_a_at) / RFU CAMK2N1 (11719241_x_at) / Fold change /veh CAMK2N1 (11719241_x_at) / RFU C5orf56 (11738088_a_at) / Fold change /veh C5orf56 (11738088_a_at) / RFU OLFML3 (11715873_a_at) / Fold change /veh OLFML3 (11715873_a_at) / RFU LOC100653217 /// NTM (11731650_a_at) / Fold change /veh LOC100653217 /// NTM (11731650_a_at) / RFU MAPK11 (11762145_a_at) / Fold change /veh MAPK11 (11762145_a_at) / RFU FIZ1 (11724087_x_at) / Fold change /veh FIZ1 (11724087_x_at) / RFU OASL (11726364_x_at) / Fold change /veh OASL (11726364_x_at) / RFU SOX15 (11748057_x_at) / Fold change /veh SOX15 (11748057_x_at) / RFU CD79A (11719716_a_at) / Fold change /veh CD79A (11719716_a_at) / RFU HIST1H1D (11736915_at) / Fold change /veh HIST1H1D (11736915_at) / RFU CASKIN2 (11723855_a_at) / Fold change /veh CASKIN2 (11723855_a_at) / RFU LOC730098 (11760151_x_at) / Fold change /veh LOC730098 (11760151_x_at) / RFU OR4N2 (11742367_at) / Fold change /veh OR4N2 (11742367_at) / RFU PRRT2 (11749266_a_at) / Fold change /veh PRRT2 (11749266_a_at) / RFU SNX32 (11753110_a_at) / Fold change /veh SNX32 (11753110_a_at) / RFU CDHR5 (11726645_a_at) / Fold change /veh CDHR5 (11726645_a_at) / RFU RCAN1 (11760418_a_at) / Fold change /veh RCAN1 (11760418_a_at) / RFU FAM167A (11723789_a_at) / Fold change /veh FAM167A (11723789_a_at) / RFU FAM26E (11764081_at) / Fold change /veh FAM26E (11764081_at) / RFU ISYNA1 (11749810_s_at) / Fold change /veh ISYNA1 (11749810_s_at) / RFU ACY1 (11761880_at) / Fold change /veh ACY1 (11761880_at) / RFU 11764098_at / Fold change /veh 11764098_at / RFU SAMD14 (11745864_x_at) / Fold change /veh SAMD14 (11745864_x_at) / RFU NPB (11741838_a_at) / Fold change /veh NPB (11741838_a_at) / RFU TMPRSS6 (11731388_a_at) / Fold change /veh TMPRSS6 (11731388_a_at) / RFU KRTAP10-2 (11738614_at) / Fold change /veh KRTAP10-2 (11738614_at) / RFU ARHGAP8 /// PRR5-ARHGAP8 (11727945_x_at) / Fold change /veh ARHGAP8 /// PRR5-ARHGAP8 (11727945_x_at) / RFU KRTAP5-7 /// NADSYN1 (11734609_at) / Fold change /veh KRTAP5-7 /// NADSYN1 (11734609_at) / RFU RASL12 (11751679_a_at) / Fold change /veh RASL12 (11751679_a_at) / RFU CDKN2B (11736163_a_at) / Fold change /veh CDKN2B (11736163_a_at) / RFU PRF1 (11729649_at) / Fold change /veh PRF1 (11729649_at) / RFU, ZNF638 /// ZNF638-IT1 / Fold change vs veh, ZNF638 /// ZNF638-IT1 / RFU, PANK3 / Fold change vs veh, PANK3 / RFU, SH3YL1 / Fold change vs veh, SH3YL1 / RFU, ZEB2 / Fold change vs veh, ZEB2 / RFU, NRIP1 / Fold change vs veh, NRIP1 / RFU, PTTG1IP / Fold change vs veh, PTTG1IP / RFU, CAPN2 / Fold change vs veh, CAPN2 / RFU, MED14 / Fold change vs veh, MED14 / RFU, SNORA58 / Fold change vs veh, SNORA58 / RFU, C1orf63 / Fold change vs veh, C1orf63 / RFU, LRRFIP1 / Fold change vs veh, LRRFIP1 / RFU, NDUFAF7 / Fold change vs veh, NDUFAF7 / RFU, SLC12A2 / Fold change vs veh, SLC12A2 / RFU, IBTK / Fold change vs veh, IBTK / RFU, ESF1 / Fold change vs veh, ESF1 / Fold change vs veh, TMEM50B / RFU, TAOK1 / Fold change vs veh, TAOK1 / RFU, ACBD3 / Fold change vs veh, ACBD3 / RFU, TMA16 / Fold change vs veh, TMA16 / RFU, RWDD3 / Fold change vs veh, RWDD3 / RFU, BCAT1 / Fold change vs veh, BCAT1 / RFU, EDEM3 / Fold change vs veh, EDEM3 / RFU, TMEM33 / Fold change vs veh, TMEM33 / RFU, WDR75 / Fold change vs veh, WDR75 / RFU, AHCTF1 / Fold change vs veh, AHCTF1 / RFU, TFRC / Fold change vs veh, TFRC / RFU, ZDHHC17 / Fold change vs veh, ZDHHC17 / RFU, NOM1 / Fold change vs veh, NOM1 / RFU, ARL8B / Fold change vs veh, ARL8B / RFU, ZBTB11 / Fold change vs veh, ZBTB11 / RFU, TAMM41 / Fold change vs veh, TAMM41 / RFU, KIAA1704 /// LOC100996395 / Fold change vs veh, KIAA1704 /// LOC100996395 / RFU, ING1 / Fold change vs veh, ING1 / RFU, TRMT61B / Fold change vs veh, TRMT61B / RFU, FUBP3 / Fold change vs veh, FUBP3 / RFU, TP53 / Fold change vs veh, TP53 / RFU, TNKS2 / Fold change vs veh, TNKS2 / RFU, ZFP14 / Fold change vs veh, ZFP14 / RFU, ACTR2 / Fold change vs veh, ACTR2 / RFU, PPP3R1 / Fold change vs veh, PPP3R1 / RFU, PIK3R1 / Fold change vs veh, PIK3R1 / RFU, HNRNPA1 / Fold change vs veh, HNRNPA1 / RFU, RNF170 / Fold change vs veh, RNF170 / RFU, ZNF28 / Fold change vs veh, ZNF28 / RFU, RNGTT / Fold change vs veh, RNGTT / RFU, OGT / Fold change vs veh, OGT / RFU, BRD1 / Fold change vs veh, BRD1 / RFU, MARS / Fold change vs veh, MARS / RFU, ZNF655 / Fold change vs veh, ZNF655 / RFU, FAHD1 / Fold change vs veh, FAHD1 / RFU, BDP1 / Fold change vs veh, BDP1 / RFU, LRRCC1 / Fold change vs veh, LRRCC1 / RFU, ARID1A / Fold change vs veh, ARID1A / RFU, ZNF146 / Fold change vs veh, ZNF146 / RFU, ZNF330 / Fold change vs veh, ZNF330 / RFU, GPN3 / Fold change vs veh, GPN3 / RFU, C9orf123 / Fold change vs veh, C9orf123 / RFU, N4BP2L2 / Fold change vs veh, N4BP2L2 / RFU, ARFIP1 / Fold change vs veh, ARFIP1 / RFU, FAM179B / Fold change vs veh, FAM179B / RFU, BCL10 / Fold change vs veh, BCL10 / RFU, UHRF1BP1L / Fold change vs veh, UHRF1BP1L / RFU, BET1 / Fold change vs veh, BET1 / RFU, CNOT2 / Fold change vs veh, CNOT2 / RFU, ZNF268 / Fold change vs veh, ZNF268 / Fold change vs veh, ZNF507 / RFU, DGCR2 / Fold change vs veh, DGCR2 / RFU, WDSUB1 / Fold change vs veh, WDSUB1 / Fold change vs veh, HSP90B1 /// MIR3652 / RFU, ADSS / Fold change vs veh, ADSS / RFU, GK / Fold change vs veh, GK / RFU, ZNF148 / Fold change vs veh, ZNF148 / RFU, TAF9 / Fold change vs veh, TAF9 / RFU, SLC1A5 / Fold change vs veh, SLC1A5 / RFU, SLMO2 / Fold change vs veh, SLMO2 / RFU, ABCC4 / Fold change vs veh, ABCC4 / RFU, LOC101060439 /// RAP1B / Fold change vs veh, LOC101060439 /// RAP1B / RFU, RFX7 / Fold change vs veh, RFX7 / RFU, GTPBP10 / Fold change vs veh, GTPBP10 / RFU, CNEP1R1 / Fold change vs veh, CNEP1R1 / RFU, BIVM-ERCC5 /// ERCC5 / Fold change vs veh, BIVM-ERCC5 /// ERCC5 / RFU, ILF3 / Fold change vs veh, ILF3 / RFU 11762660_at / Fold change /veh 11762660_at / RFU VCAN (11757783_s_at) / Fold change /veh VCAN (11757783_s_at) / RFU DDX43 (11728927_at) / Fold change /veh DDX43 (11728927_at) / RFU KRT8 (11758188_x_at) / Fold change /veh KRT8 (11758188_x_at) / RFU NKD1 (11759106_at) / Fold change /veh NKD1 (11759106_at) / RFU SRD5A1 (11742802_a_at) / Fold change /veh SRD5A1 (11742802_a_at) / RFU TPSAB1 /// TPSB2 (11721975_s_at) / Fold change /veh TPSAB1 /// TPSB2 (11721975_s_at) / RFU GSTM3 (11746129_a_at) / Fold change /veh GSTM3 (11746129_a_at) / RFU IL23R (11737362_x_at) / Fold change /veh IL23R (11737362_x_at) / RFU TMEM51 (11727254_a_at) / Fold change /veh TMEM51 (11727254_a_at) / RFU PIWIL2 (11732686_x_at) / Fold change /veh PIWIL2 (11732686_x_at) / RFU ORM1 (11744905_x_at) / Fold change /veh ORM1 (11744905_x_at) / RFU CCDC152 (11743942_at) / Fold change /veh CCDC152 (11743942_at) / RFU ECM1 (11717891_a_at) / Fold change /veh ECM1 (11717891_a_at) / RFU IL23R (11748794_a_at) / Fold change /veh IL23R (11748794_a_at) / RFU TNFAIP8L3 (11732012_x_at) / Fold change /veh TNFAIP8L3 (11732012_x_at) / RFU MBOAT4 (11741988_at) / Fold change /veh MBOAT4 (11741988_at) / RFU 11764193_at / Fold change /veh 11764193_at / RFU TMEM53 (11763286_at) / Fold change /veh TMEM53 (11763286_at) / RFU MAGEB2 (11727129_at) / Fold change /veh MAGEB2 (11727129_at) / RFU TMEM200A (11744735_a_at) / Fold change /veh TMEM200A (11744735_a_at) / RFU CCDC152 (11751479_a_at) / Fold change /veh CCDC152 (11751479_a_at) / RFU FAM211A (11726209_a_at) / Fold change /veh FAM211A (11726209_a_at) / RFU RGS16 (11746705_a_at) / Fold change /veh RGS16 (11746705_a_at) / RFU VCAN (11755009_s_at) / Fold change /veh VCAN (11755009_s_at) / RFU RHOB (11743442_s_at) / Fold change /veh RHOB (11743442_s_at) / RFU RGS16 (11720943_a_at) / Fold change /veh RGS16 (11720943_a_at) / RFU RGS16 (11720944_at) / Fold change /veh RGS16 (11720944_at) / RFU, VPS4B / Fold change vs veh, VPS4B / RFU, CREB1 / Fold change vs veh, CREB1 / RFU, DNAJC13 / Fold change vs veh, DNAJC13 / RFU, GNAQ / Fold change vs veh, GNAQ / RFU, CDK5R1 / Fold change vs veh, CDK5R1 / RFU, ZRANB3 / Fold change vs veh, ZRANB3 / RFU, CUL4A / Fold change vs veh, CUL4A / RFU, CCNY / Fold change vs veh, CCNY / RFU, UFL1 / Fold change vs veh, UFL1 / RFU, COG3 / Fold change vs veh, COG3 / RFU, DIAPH2 / Fold change vs veh, DIAPH2 / RFU, SKA2 / Fold change vs veh, SKA2 / RFU, AFF3 / Fold change vs veh, AFF3 / RFU, LMF1 / Fold change vs veh, LMF1 / RFU, IPO11 / Fold change vs veh, IPO11 / RFU, DFFB / Fold change vs veh, DFFB / RFU, FOXP1 / Fold change vs veh, FOXP1 / RFU, CARD8 / Fold change vs veh, CARD8 / RFU, STRN3 / Fold change vs veh, STRN3 / RFU, ADK / Fold change vs veh, ADK / RFU, RASSF2 / Fold change vs veh, RASSF2 / RFU, WIPF1 / Fold change vs veh, WIPF1 / RFU, LARP1B / Fold change vs veh, LARP1B / RFU, RASA1 / Fold change vs veh, RASA1 / RFU, RB1 / Fold change vs veh, RB1 / RFU, PPFIA1 / Fold change vs veh, PPFIA1 / RFU, MAT2A / Fold change vs veh, MAT2A / RFU, CCT5 / Fold change vs veh, CCT5 / RFU, WDR92 / Fold change vs veh, WDR92 / RFU, CUX1 / Fold change vs veh, CUX1 / RFU, TTC7A / Fold change vs veh, TTC7A / RFU, TMEM135 / Fold change vs veh, TMEM135 / RFU, DEPTOR / Fold change vs veh, DEPTOR / RFU, CPM / Fold change vs veh, CPM / RFU, DNAJB6 / Fold change vs veh, DNAJB6 / RFU, CACNA2D3 / Fold change vs veh, CACNA2D3 / RFU, DTX4 / Fold change vs veh, DTX4 / RFU, TFCP2 / Fold change vs veh, TFCP2 / RFU, GMCL1 /// GMCL1P1 / Fold change vs veh, GMCL1 /// GMCL1P1 / RFU, AEBP2 / Fold change vs veh, AEBP2 / RFU, SNHG1 /// SNORD22 /// SNORD25 /// SNORD26 /// SNORD27 /// SNORD28 /// SNORD29 /// SNORD31 / Fold change vs veh, SNHG1 /// SNORD22 /// SNORD25 /// SNORD26 /// SNORD27 /// SNORD28 /// SNORD29 /// SNORD31 / Fold change (Aza/veh), C12orf56 (ProbeSet 11735607_a_at) / Fold change (ACY-1035/veh), C12orf56 (ProbeSet 11735607_a_at) / Fold change (Aza/veh), FGFR1OP (ProbeSet 11751329_s_at) / Fold change (ACY-1035/veh), FGFR1OP (ProbeSet 11751329_s_at) / Fold change (Aza/veh), VPS36 (ProbeSet 11739960_a_at) / Fold change (ACY-1035/veh), VPS36 (ProbeSet 11739960_a_at) / RFU SYPL1 (11715823_x_at) / Fold change /veh SYPL1 (11715823_x_at) / RFU IGFBP7 (11715501_s_at) / Fold change /veh IGFBP7 (11715501_s_at) / RFU REEP3 (11722064_at) / Fold change /veh REEP3 (11722064_at) / RFU IGLL1 (11728026_x_at) / Fold change /veh IGLL1 (11728026_x_at): dose or concentration left out as unconfirmed
Conditions: MV-4-11 cells, 48 hours

Nc1ncn([C@@H]2O[C@H](CO)[C@@H](O)[C@H]2O)c(=O)n1 [azacitidine]
RFU DUSP10 (11751237_a_at): 30.26 RFU
